Assay results published in paper PMC3100585 (The Annals of pharmacotherapy, 2010).
Where “and” joins values, the source holds several entries; their conditions need not be identical. Equal entries are not always repeated.

Key:
CYP3A4 [1] = assay: Midazolam pharmacokinetics; details: for Midazolam AUC, median (dose normalized): 6 patients; for half-life: human, plasma, intravenous, 0.0145 mg/kg, Half-life of midazolam, median
[2] = test system: CYP3A4 protein in HepG2 cells; assay: CYP3A4 protein expression by Western blot in HepG2 cells; format: cell-based, human; details: 48 hours, vinblastine 300 ng/mL and above (range 150-4800 ng/mL)
mouse NR1I2 = target: T1, mouse NR1I2 (Mus musculus, UniProt O54915); assay: Luciferase reporter gene assay, full-length mouse NR1I2; format: cell-based; details: HepG2 cells, 24 hours; vinblastine 150-4800 ng/mL; PCN 50 μM
T1 sequence (O54915 1-431): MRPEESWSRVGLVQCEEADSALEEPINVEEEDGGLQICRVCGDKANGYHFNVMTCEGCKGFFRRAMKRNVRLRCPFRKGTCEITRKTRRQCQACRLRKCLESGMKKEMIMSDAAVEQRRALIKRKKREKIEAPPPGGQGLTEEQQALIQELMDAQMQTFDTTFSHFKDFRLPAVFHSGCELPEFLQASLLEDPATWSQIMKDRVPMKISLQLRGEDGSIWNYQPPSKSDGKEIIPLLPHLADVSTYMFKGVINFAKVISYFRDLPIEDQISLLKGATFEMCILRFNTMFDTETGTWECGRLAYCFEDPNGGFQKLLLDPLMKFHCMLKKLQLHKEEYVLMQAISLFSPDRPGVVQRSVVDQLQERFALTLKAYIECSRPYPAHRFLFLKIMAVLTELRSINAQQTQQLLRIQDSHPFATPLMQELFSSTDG

human NR1I2 = target: T2, human NR1I2 (Homo sapiens, UniProt O75469); details: HepG2 cells, 24 hours; vinblastine 150-4800 ng/mL; rifampin 10 μM
T2 sequence (O75469 1-434): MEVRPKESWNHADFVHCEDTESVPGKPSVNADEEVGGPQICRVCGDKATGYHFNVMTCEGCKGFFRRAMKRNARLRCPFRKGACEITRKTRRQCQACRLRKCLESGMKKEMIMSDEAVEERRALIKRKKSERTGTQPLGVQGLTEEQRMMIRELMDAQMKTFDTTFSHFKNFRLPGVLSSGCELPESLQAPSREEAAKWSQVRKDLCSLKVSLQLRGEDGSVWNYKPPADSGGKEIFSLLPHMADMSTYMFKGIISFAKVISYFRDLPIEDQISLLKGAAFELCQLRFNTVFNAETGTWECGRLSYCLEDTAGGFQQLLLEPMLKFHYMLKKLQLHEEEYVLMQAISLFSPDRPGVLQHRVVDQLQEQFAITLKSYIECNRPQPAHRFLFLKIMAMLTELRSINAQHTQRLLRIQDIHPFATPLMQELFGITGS

human NR1I3 = target: T3, human NR1I3 (Homo sapiens, UniProt Q14994); details: NIH3T3 cells, 24 hours; vinblastine 150-4800 ng/mL
T3 sequence (Q14994 1-348 isoform Q14994-2): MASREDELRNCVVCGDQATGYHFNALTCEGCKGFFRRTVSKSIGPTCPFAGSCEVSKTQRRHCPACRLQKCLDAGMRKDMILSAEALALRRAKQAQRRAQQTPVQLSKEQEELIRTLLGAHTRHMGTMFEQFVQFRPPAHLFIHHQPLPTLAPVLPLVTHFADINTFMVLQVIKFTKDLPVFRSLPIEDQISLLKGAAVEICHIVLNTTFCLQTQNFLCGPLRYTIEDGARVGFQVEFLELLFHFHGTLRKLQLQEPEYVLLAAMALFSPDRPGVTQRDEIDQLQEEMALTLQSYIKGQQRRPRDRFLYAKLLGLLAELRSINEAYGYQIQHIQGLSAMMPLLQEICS
T3 sequence (P28700 1-467 partner): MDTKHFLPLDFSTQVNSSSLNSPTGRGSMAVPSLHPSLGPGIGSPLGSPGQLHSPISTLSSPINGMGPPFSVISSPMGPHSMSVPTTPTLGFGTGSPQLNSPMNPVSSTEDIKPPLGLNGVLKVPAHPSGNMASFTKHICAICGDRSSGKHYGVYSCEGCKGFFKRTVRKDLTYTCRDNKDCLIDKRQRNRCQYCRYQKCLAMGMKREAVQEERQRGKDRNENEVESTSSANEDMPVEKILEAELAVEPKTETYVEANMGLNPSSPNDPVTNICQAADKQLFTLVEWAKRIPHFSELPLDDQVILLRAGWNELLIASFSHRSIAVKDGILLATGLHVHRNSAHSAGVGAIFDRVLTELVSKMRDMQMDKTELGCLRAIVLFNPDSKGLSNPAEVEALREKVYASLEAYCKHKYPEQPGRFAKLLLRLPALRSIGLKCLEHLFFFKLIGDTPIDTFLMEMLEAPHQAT

mouse NR1I3 = target: T4, mouse NR1I3 (Mus musculus, UniProt O35627); details: NIH3T3 cells, 24 hours; vinblastine 150-4800 ng/mL
T4 sequence (O35627 1-358): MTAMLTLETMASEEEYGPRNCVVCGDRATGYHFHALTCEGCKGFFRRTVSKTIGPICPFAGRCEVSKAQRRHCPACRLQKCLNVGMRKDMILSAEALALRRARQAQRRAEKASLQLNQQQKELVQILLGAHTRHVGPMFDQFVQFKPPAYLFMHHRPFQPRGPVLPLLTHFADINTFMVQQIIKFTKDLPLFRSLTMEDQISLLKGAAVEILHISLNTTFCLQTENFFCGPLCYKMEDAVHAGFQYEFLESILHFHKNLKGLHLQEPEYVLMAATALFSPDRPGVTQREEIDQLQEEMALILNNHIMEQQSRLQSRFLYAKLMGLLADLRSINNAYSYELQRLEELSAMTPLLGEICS

CYP3A4 [3] = details: cited from earlier work

Structure (SMILES): Cc1ncc2n1-c1ccc(Cl)cc1C(c1ccccc1F)=NC2 [midazolam]
- Midazolam AUC, median (dose normalized) (CYP3A4 [1]; day 1 of cycle 1): 46.4 ng·h/mL per mg
- Midazolam AUC, median (dose normalized) (CYP3A4 [1]; day 1 of cycle 4, after repeat vinblastine): 31.0 ng·h/mL per mg
- half-life (CYP3A4 [1]; day 1 of cycle 1): 2.54 h
- half-life (CYP3A4 [1]; day 1 of cycle 4): 3.08 h
- % ↑ Midazolam Cl (CYP3A4 [1]; individual patients, cycle 4 vs cycle 1, after repeat vinblastine): 51.7% and 35.9% and 216.7% and 2.5% and 46.9% and 6.9%
- Midazolam clearance relative to value prior to treatment with vinblastine (CYP3A4 [1]; one patient, midazolam on 5 occasions over 1.3 years, end of period): 3.6 fold

Structure (SMILES): CC[C@]1(O)C[C@@H]2CN(CCc3c([nH]c4ccccc34)[C@@](C(=O)OC)(c3cc4c(cc3OC)N(C)[C@H]3[C@@](O)(C(=O)OC)[C@H](OC(C)=O)[C@]5(CC)C=CCN6CC[C@]43[C@@H]65)C2)C1 [vinblastine, Vinblastine]
- CYP3A4 protein expression compared to DMSO-treated control cells [2]: substantially increased CYP3A4 protein expression

Structure (SMILES): C/C=C/C[C@@H](C)C(=O)[C@H]1C(=O)N[C@@H](C(C)C)C(=O)N(C)CC(=O)N(C)[C@@H](CC(C)C)C(=O)N[C@@H](C(C)C)C(=O)N(C)[C@@H](CC(C)C)C(=O)N[C@@H](C)C(=O)N[C@H](C)C(=O)N(C)[C@@H](CC(C)C)C(=O)N(C)[C@@H](CC(C)C)C(=O)N(C)[C@@H](C(C)C)C(=O)N1C [valspodar]
- Increase in transcriptional (reporter) activity of mouse NR1I2 (mouse NR1I2): Increased activity of the reporter was not observed
- Increase in transcriptional (reporter) activity of human NR1I2 (human NR1I2): Increased activity of the reporter was not observed
- Effect on transcriptional activity of human NR1I3 (human NR1I3): Increased activity of the reporter was not observed
- Effect on transcriptional activity of mouse NR1I3 (mouse NR1I3): Increased activity of the reporter was not observed
- CYP3A4 inhibition (CYP3A4 [3]): very weak CYP3A4 inhibitor
